Data as given in ChEMBL document CHEMBL5226309, “Synthetic RNA Modulators in Drug Discovery” (J Med Chem, 2021).
Values belong to the compound of their own block, whether it stands above or below them.

Tests used:
[1] = Inhibition of miR-21 in human MDA-MB-231 cells; assay type: cell-based
[2] = tested on: MDA-MB-231; experiment: Inhibition of miR-21 in human MDA-MB-231 cells assessed as decrease in pre-miR-21 level at 50 nM relative to control; assay type: cell-based
[3] = tested on: A-375; experiment: Inhibition of miR-21 in human A-375 cells assessed as decrease in pre-miR-21 level at 50 nM relative to control; assay type: cell-based
[4] = tested on: A549; experiment: Inhibition of miR-21 in human A549 cells assessed as decrease in pre-miR-21 level at 50 nM relative to control; assay type: cell-based
[5] = Binding affinity to miR-21 (unknown origin) assessed as dissociation constant by fluorescence based analysis
[6] = Downregulation of alpha-Synuclein level in human SH-SY5Y cells at 5 uM relative to control; assay type: functional
[7] = Binding affinity to TAR mRNA assessed as dissociation constant by ITC analysis
[8] = Displacement of Tat from TAR mRNA by FRET analysis
[9] = Binding affinity to Precursor microRNA-96 (unknown origin) assessed as dissociation constant
[10] = Inhibition of Precursor microRNA-96 (unknown origin) relative to control; conditions: concentration not given here
[11] = Binding affinity to DNA hairpin (unknown origin) assessed as dissociation constant
[12] = Binding affinity to miR-18a (unknown orgin) assessed as dissociation constant
[13] = Inhibition of miR-18a (unknown orgin) production
[14] = Inhibition of miR-21 (unknown origin) at 1 uM by differential scanning fluorometry analysis relative to control
[15] = Inhibition of 5'FAM-labeled and 3'DAB-labeled Precursor microRNA-372 (unknown origin) assessed as inhibition of Dicer-induced pre-miR-372 cleavage by measuring fluorescence incubated for 30 min in presence of human recombinant Dicer by FRET Dicer assay
[16] = Inhibition of 5'FAM-labeled and 3'DAB-labeled Precursor microRNA-373 (unknown origin) assessed as inhibition of Dicer-induced pre-miR-373 cleavage by measuring fluorescence incubated for 30 min in presence of human recombinant Dicer by FRET Dicer assay
[17] = tested on: AGS; experiment: Antiproliferative activity against human AGS cells assessed as reduction in cell viability at 25 uM measured after 4 days by CellTiter96 assay relative to control; assay type: functional; conditions: 96 h, time 4 day
[18] = Downregulation of miR-122 expression in human Huh-7 cells at 10 uM incubated for 48 hrs by RT-PCR analysis relative to control; assay type: functional
[19] = tested on: Hepatitis C virus; experiment: Antiviral activity against HCV JFH-1 infected in human Huh-7 cells assessed as reduction in viral replication measured after 48 hrs by RT-PCR analysis relative to control; assay type: functional, Hepacivirus hominis; design: scale not given: the % may be the effect or the level left
[20] = biological target: T1, Muscleblind-like protein 1 (Homo sapiens) (UniProt Q9NR56); experiment: Inhibition of MBNL1 (unknown origin) in human GDM-1 cells assessed as rescue of IR exon splicing defect at 100 pM by PCR analysis relative to control; assay type: cell-based
T1 sequence (whole entry): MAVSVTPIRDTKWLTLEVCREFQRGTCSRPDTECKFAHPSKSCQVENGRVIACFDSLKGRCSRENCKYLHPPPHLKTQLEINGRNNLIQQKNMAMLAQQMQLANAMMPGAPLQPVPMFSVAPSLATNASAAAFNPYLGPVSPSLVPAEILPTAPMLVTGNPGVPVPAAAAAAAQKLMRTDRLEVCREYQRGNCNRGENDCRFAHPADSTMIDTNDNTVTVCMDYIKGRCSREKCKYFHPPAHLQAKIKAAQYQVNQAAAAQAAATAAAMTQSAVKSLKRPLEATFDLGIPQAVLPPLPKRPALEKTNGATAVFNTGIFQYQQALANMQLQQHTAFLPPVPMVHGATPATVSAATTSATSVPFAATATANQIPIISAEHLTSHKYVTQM

[21] = Binding affinity to Precursor microRNA-372 (unknown origin) assessed as dissociation constant
[22] = Inhibition of Precursor microRNA-372 (unknown origin) assessed as inhibition of Dicer-induced pre-miR-372 cleavage
[23] = Binding affinity to pre-miR-21 (unknown origin) assessed as dissociation constant by Monolith NT.115 microscale thermophoresis based analysis

SMILES: CCCN(CC(=O)N(CCC)CC(=O)N(CCC)CC(=O)N(CC(=O)NCCOCCOCCOCCOc1ccc(/C=C2\SC(Nc3ccccc3)=C(C(=O)OCC)C2=O)cc1O)Cc1cn(CCCNC(=O)CCCOc2ccc(-c3nc4ccc(-c5ccc(N6CCN(C)CC6)cc5)cc4[nH]3)cc2)nn1)C(=O)CNCc1cn(CCCNC(=O)CCCOc2ccc(-c3nc4ccc(-c5ccc(N6CCN(C)CC6)cc5)cc4[nH]3)cc2)nn1
IC50 [1]: 50 nM | inhibition [2]: 50% | inhibition [3]: 50% | inhibition [4]: 50%

SMILES: N#Cc1ccc(Nc2ccc(-c3nc4ccc(C#N)cc4[nH]3)cc2)cc1
Activity [6]: 40%

SMILES: c1cc(C2=NCCN2)ccc1Oc1ccc(-c2cc3ccc(C4=NCCN4)cc3[nH]2)cc1
Activity [6]: 40%

SMILES: CCCN(CC(=O)N(CCC)CC(=O)N(CC(N)=O)Cc1cn(CCCNC(=O)CCCOc2c(C(C)(C)C)cc(-c3nc4cc(N5CCN(C)CC5)ccc4[nH]3)cc2C(C)(C)C)nn1)C(=O)CCCOc1cccc(-c2nc3ccc(-c4nc5ccc(N6CCN(C)CC6)cc5[nH]4)cc3[nH]2)c1
Kd [9]: 85 nM | inhibition [10]: 50% | Kd [11]: > 50 µM

SMILES: NC[C@@H]1O[C@H](O[C@H]2[C@@H](O)[C@H](O[C@@H]3[C@@H](O)[C@H](N)C[C@H](N)[C@H]3O[C@H]3O[C@H](CN)[C@@H](O)[C@H](O)[C@H]3N)O[C@@H]2CSCCNC(=O)CCCCCn2cc(COc3ccc4c(c3)C(=O)N(O)C(=O)C4)nn2)[C@H](N)[C@@H](O)[C@@H]1O
inhibition [14]: 90%

SMILES: NC[C@@H]1O[C@H](O[C@H]2[C@@H](O)[C@H](O[C@@H]3[C@@H](O)[C@H](N)C[C@H](N)[C@H]3O[C@H]3O[C@H](CN)[C@@H](O)[C@H](O)[C@H]3N)O[C@@H]2Cn2cc(CCC(=O)Nc3ccc(-c4csc(NC(=O)c5ccc(Cl)cc5)n4)cc3)nn2)[C@H](N)[C@@H](O)[C@@H]1O
IC50 [15]: 980 nM | IC50 [16]: 2190 nM | inhibition at 25 µM [17]: 50%

SMILES: O=S(=O)(c1ccc2c(c1)CCCN2)N1CCC[C@@H]2CCCC[C@H]21
Activity [18]: 45% | Activity [19]: 47%

SMILES: C#CC(=O)NCCCCCC(=O)N(CCN(C)C(=O)CCCOc1cccc(-c2nc3ccc(-c4nc5ccc(N6CCN(C)CC6)cc5[nH]4)cc3[nH]2)c1)CC(=O)N(C)[C@@H](C)C(=O)N(C)[C@@H](C)C(=O)N(C)[C@@H](C)C(=O)N(CCCCN(C)C(=O)CCCOc1cccc(-c2nc3ccc(-c4nc5ccc(N6CCN(C)CC6)cc5[nH]4)cc3[nH]2)c1)CC(=O)N(CCCN=[N+]=[N-])CC(N)=O
inhibition [20]: 100%

SMILES: CCCN(CC(=O)N(CCC)CC(=O)N(CCC)CC(=O)N(CC(=O)O)Cc1cn(CCCNC(=O)CCCOc2ccc(-c3nc4ccc(-c5ccc(N6CCN(C)CC6)cc5)cc4[nH]3)cc2)nn1)C(=O)CNCc1cn(CCCNC(=O)CCCOc2ccc(-c3nc4ccc(-c5ccc(N6CCN(C)CC6)cc5)cc4[nH]3)cc2)nn1
Kd [23]: 980 nM

SMILES: CN(C)CCCn1cc(CNC(=O)c2csc(NC(=O)c3csc(NC(=O)c4csc(N)n4)n3)n2)nn1
Kd [7]: 6.7 µM | DC50 [8]: 10.6 µM

The next lines start with the values.

Kd [5]: 730 nM
SMILES: CNC(=O)c1cc(Oc2ccc(NC(=O)Nc3ccc(Cl)c(C(F)(F)F)c3)c(F)c2)ccn1 [REGORAFENIB]

Kd [7]: 0.54 µM | DC50 [8]: 1.5 µM
SMILES: CN(C)CCCn1cc(CNC(=O)Cc2csc(NC(=O)Cc3csc(N)n3)n2)nn1

Kd [12]: 32 µM | IC50 [13]: 10 µM
SMILES: CN1CCN(c2ccc(-c3ccc4nc(-c5cc(C(C)(C)C)c(OCCCC(=O)NCCCN=[N+]=[N-])c(C(C)(C)C)c5)[nH]c4c3)cc2)CC1

Kd [21]: 150 nM | IC50 [22]: 1060 nM
SMILES: CNc1ccc(C2c3ccccc3N=C(NCCCNCCCCNCCCN)C2(C)C)cc1 (configuration not stated)

inhibition [14]: 47%
SMILES: Cc1ccccc1NCC(O)Cn1c2ccc(Br)cc2c2cc(Br)ccc21 (configuration not stated)
